Test results published in paper PMC3437750 (Journal of medicinal chemistry, 2011).

Key:
[1] = biological target: T1, purified human PMM2 (Homo sapiens, UniProt O15305); assay: PMM2 in vitro enzymatic concentration-response assay; format: biochemical; conditions: tested up to 20 µM where stated
T1 sequence (O15305 1-246): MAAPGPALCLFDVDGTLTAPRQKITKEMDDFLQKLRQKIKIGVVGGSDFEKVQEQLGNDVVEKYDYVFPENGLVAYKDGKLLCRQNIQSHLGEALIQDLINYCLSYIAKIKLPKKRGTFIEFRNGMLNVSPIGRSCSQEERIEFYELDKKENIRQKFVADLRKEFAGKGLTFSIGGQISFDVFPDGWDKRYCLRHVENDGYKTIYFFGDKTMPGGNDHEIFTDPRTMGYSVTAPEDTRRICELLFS

[2] = biological target: T2, purified human PMI (Homo sapiens, UniProt P34949); format: biochemical
T2 sequence (P34949 1-423): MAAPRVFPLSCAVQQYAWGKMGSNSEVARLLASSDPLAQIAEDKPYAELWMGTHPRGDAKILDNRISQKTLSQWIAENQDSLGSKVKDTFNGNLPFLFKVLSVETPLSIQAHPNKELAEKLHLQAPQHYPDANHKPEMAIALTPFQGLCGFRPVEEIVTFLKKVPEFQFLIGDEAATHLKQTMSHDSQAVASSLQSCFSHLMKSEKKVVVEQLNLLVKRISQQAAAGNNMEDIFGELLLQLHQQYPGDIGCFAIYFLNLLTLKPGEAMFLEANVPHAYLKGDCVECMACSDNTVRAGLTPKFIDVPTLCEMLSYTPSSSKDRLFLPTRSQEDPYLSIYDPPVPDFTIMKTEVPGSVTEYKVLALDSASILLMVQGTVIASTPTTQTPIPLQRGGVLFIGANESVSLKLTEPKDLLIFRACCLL

[3] = tested on: Hela cells
[4] = Glutathione conjugation assay; conditions: 10 µM, 2 mg/mL rat hepatic S9, 10 mM glutathione, 37°C, 2 hours
[5] = Parallel Artificial Membrane Permeation Assay; format: in vitro ADME; conditions: assessed in vitro, PAMPA

| Structure (SMILES) | PMM2 inhibition (in words) [1] | GSH adduct formation by LCMS (in words) [4] | other results |
| --- | --- | --- | --- |
| O=c1c2ccccc2sn1-c1ccccc1 [Compound 1, 2-Phenyl-2-hydrobenzo[d]isothiazol-3-one] | selective for PMI over PMM2 | – | – |
| O=c1c2ccccc2sn1-c1ccc(C(F)(F)F)cc1 [Compound 6, 2-[4-(Trifluoromethyl)phenyl]-2-hydrobenzo[d]isothiazol-3-one] | inactive against both enzymes | – | PMI inhibition (in words) [2]: inactive against both enzymes; cellular toxicity (35S-Met/Cys incorporation, in words) [3]: exhibits cellular toxicity |
| Cc1ccc(C)c(-n2sc3ccccc3c2=O)c1 [Compound 16, 2-(2,5-dimethylphenyl) benzo[d]isothiazol-3(2H)-one] | a measurable inhibition of PMM2 was observed | – | – |
| O=c1c2cc(F)ccc2sn1-c1ccccc1 [Compound 19, 5-Fluoro-2-phenylbenzo[d]isothiazol-3(2H)-one] | – | no GSH adducts were observed | predicted permeability (in words) [5]: moderately permeable |
| O=C(O)Cc1ccccc1Nc1c(Cl)cccc1Cl [diclofenac, reference compound] | – | showed the expected conjugate masses | – |
